From ChEMBL document CHEMBL1201862, “PubChem BioAssay data set” (2004)
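Test compounds were applied to cells in 96-well plates for 48 hours at 5 doses. GI50: concentration for 50% inhibition of growth.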 Active and inactive are the calls of the source. Rule as the data show it: active = GI50 up to about 1.1 µM and inactive = higher.

Experiments:
Assay in all cases: NCI anticancer screen, dose series, 48 h
OVCAR-3 = test system: OVCAR-3
OVCAR-4 = test system: OVCAR-4
A498 = test system: A498
DMS-114 = test system: DMS-114
KM-20L2 = test system: KM-20L2
UACC-62 = test system: UACC-62
UACC-257 = test system: UACC-257
LOX IMVI = test system: LOX IMVI
SNB-19 = test system: SNB-19
A549 = test system: A549
EKVX = test system: EKVX
HL-60 = test system: HL-60
UO-31 = test system: UO-31
OVCAR-8 = test system: OVCAR-8
SK-MEL-2 = test system: SK-MEL-2
HCT-15 = test system: HCT-15
SW-620 = test system: SW-620
RXF 393 = test system: RXF 393
M19-MEL = test system: M19-MEL
HT-29 = test system: HT-29
NCI-H522 = test system: NCI-H522
IGROV-1 = test system: IGROV-1
TK-10 = test system: TK-10
SNB-75 = test system: SNB-75
SF-268 = test system: SF-268
MOLT-4 = test system: MOLT-4
HCT-116 = test system: HCT-116
SK-MEL-5 = test system: SK-MEL-5
XF498 = test system: XF498
SN12C = test system: SN12C
RPMI-8226 = test system: RPMI-8226
OVCAR-5 = test system: OVCAR-5
M14 = test system: M14
K562 = test system: K562
Malme-3M = test system: Malme-3M
DMS-273 = test system: DMS-273
786-0 = test system: 786-0
SF-295 = test system: SF-295
NCI-H460 = test system: NCI-H460
HOP-62 = test system: HOP-62
SK-MEL-28 = test system: SK-MEL-28
NCI-H23 = test system: NCI-H23
COLO 205 = test system: COLO 205
HOP-92 = test system: HOP-92
SF-539 = test system: SF-539
DLD-1 = test system: DLD-1
SK-OV-3 = test system: SK-OV-3
LXFL 529 = test system: LXFL 529
CAKI-1 = test system: CAKI-1
ACHN = test system: ACHN
NCI-H226 = test system: NCI-H226
CCRF-CEM = test system: CCRF-CEM
HCC 2998 = test system: HCC 2998
SR = test system: SR
KM12 = test system: KM12
U-251 = test system: U-251
SNB-78 = test system: SNB-78

For `CC(=O)O[C@H]1CC[C@@]2(C)C(=C/C(=N\[N+](=O)[O-])[C@H]3C4CCC([C@H](C)CCCC(C)C)[C@@]4(C)CCC32)C1` (some centres not stated), the GI50 (OVCAR-3) was > 100 µM (inactive), the GI50 (OVCAR-4) was > 100 µM (inactive) and the GI50 (A498) was > 100 µM (inactive). The GI50 (DMS-114) was > 100 µM (inactive), the GI50 (KM-20L2) was > 100 µM (inactive) and the GI50 (UACC-62) was > 100 µM (inactive). The GI50 (UACC-257) was > 100 µM (inactive), the GI50 (LOX IMVI) was > 100 µM (inactive) and the GI50 (SNB-19) was > 100 µM (inactive). For the same compound, the GI50 (A549) was > 100 µM (inactive), the GI50 (EKVX) was > 100 µM (inactive) and the GI50 (HL-60) was > 100 µM (inactive). For the same compound, the GI50 (UO-31) was > 100 µM (inactive), the GI50 (OVCAR-8) was > 100 µM (inactive) and the GI50 (SK-MEL-2) was > 100 µM (inactive). The GI50 (HCT-15) was over 100 µM, the GI50 (SW-620) was > 100 µM (inactive) and the GI50 (RXF 393) was > 100 µM (inactive). For the same compound, the GI50 (M19-MEL) was > 100 µM (inactive), the GI50 (HT-29) was > 100 µM (inactive) and the GI50 (NCI-H522) was > 100 µM (inactive). For the same compound, the GI50 (IGROV-1) was > 100 µM (inactive), the GI50 (TK-10) was > 100 µM (inactive) and the GI50 (SNB-75) was > 100 µM (inactive). The GI50 (SF-268) was > 100 µM (inactive), the GI50 (MOLT-4) was > 100 µM (inactive) and the GI50 (HCT-116) was > 100 µM (inactive). The GI50 (SK-MEL-5) was > 100 µM (inactive), the GI50 (XF498) was > 100 µM (inactive) and the GI50 (SN12C) was > 100 µM (inactive). The GI50 (RPMI-8226) was > 100 µM (inactive), the GI50 (OVCAR-5) was > 100 µM (inactive) and the GI50 (M14) was > 100 µM (inactive). For the same compound, the GI50 (K562) was > 100 µM (inactive), the GI50 (Malme-3M) was > 100 µM (inactive) and the GI50 (DMS-273) was > 100 µM (inactive). For the same compound, the GI50 (786-0) was > 100 µM (inactive), the GI50 (SF-295) was > 100 µM (inactive) and the GI50 (NCI-H460) was > 100 µM (inactive). For the same compound, the GI50 (HOP-62) was > 100 µM (inactive), the GI50 (SK-MEL-28) was > 100 µM (inactive) and the GI50 (NCI-H23) was > 100 µM (inactive). For the same compound, the GI50 (COLO 205) was > 100 µM (inactive), the GI50 (HOP-92) was > 100 µM (inactive) and the GI50 (SF-539) was > 100 µM (inactive). The GI50 (DLD-1) was > 100 µM (inactive), the GI50 (SK-OV-3) was > 100 µM (inactive) and the GI50 (LXFL 529) was > 100 µM (inactive). For the same compound, the GI50 (CAKI-1) was > 100 µM (inactive), the GI50 (ACHN) was > 100 µM (inactive) and the GI50 (NCI-H226) was > 100 µM (inactive).

With `Cn1ccc2c(C(=O)c3ccccc3)cccc2c1=O` the GI50 (OVCAR-3) was 36.8 µM (inactive), the GI50 (OVCAR-4) was 95.5 µM (inactive) and the GI50 (DMS-114) was 38.5 µM (inactive). For the same compound, the GI50 (UACC-62) was 31.6 µM (inactive), the GI50 (UACC-257) was > 100 µM (inactive) and the GI50 (LOX IMVI) was 54.3 µM (inactive). For the same compound, the GI50 (A549) was 57.4 µM (inactive), the GI50 (CCRF-CEM) was 32.7 µM (inactive) and the GI50 (EKVX) was > 100 µM (inactive). For the same compound, the GI50 (HL-60) was 24.9 µM (inactive), the GI50 (OVCAR-8) was 56 µM (inactive) and the GI50 (SK-MEL-2) was 57.7 µM (inactive). For the same compound, the GI50 (HCC 2998) was 89.5 µM (inactive), the GI50 (HCT-15) was 25.8 µM and the GI50 (SW-620) was 37.9 µM (inactive). The GI50 (RXF 393) was 47.5 µM (inactive), the GI50 (M19-MEL) was 74 µM (inactive) and the GI50 (HT-29) was 44.2 µM (inactive). The GI50 (NCI-H522) was 21.3 µM (inactive), the GI50 (IGROV-1) was > 100 µM (inactive) and the GI50 (TK-10) was > 100 µM (inactive). For the same compound, the GI50 (SNB-75) was 23.4 µM (inactive), the GI50 (SF-268) was 97.7 µM (inactive) and the GI50 (MOLT-4) was 38 µM (inactive). The GI50 (SR) was 56.1 µM (inactive), the GI50 (HCT-116) was 36.7 µM (inactive) and the GI50 (SK-MEL-5) was 28.8 µM (inactive). For the same compound, the GI50 (XF498) was 47.1 µM (inactive), the GI50 (SN12C) was 59.2 µM (inactive) and the GI50 (RPMI-8226) was 33.2 µM (inactive). For the same compound, the GI50 (M14) was 36.1 µM (inactive), the GI50 (Malme-3M) was 45.4 µM (inactive) and the GI50 (DMS-273) was 34.1 µM (inactive). For the same compound, the GI50 (786-0) was 39.3 µM (inactive), the GI50 (SF-295) was 20.7 µM (inactive) and the GI50 (NCI-H460) was 39.8 µM (inactive). The GI50 (HOP-62) was 31 µM (inactive), the GI50 (SK-MEL-28) was 60.5 µM (inactive) and the GI50 (COLO 205) was 44.7 µM (inactive). For the same compound, the GI50 (HOP-92) was 49.2 µM (inactive), the GI50 (SF-539) was 29.6 µM (inactive) and the GI50 (KM12) was 42.9 µM (inactive). For the same compound, the GI50 (DLD-1) was 44.6 µM (inactive), the GI50 (SK-OV-3) was 70.8 µM (inactive) and the GI50 (LXFL 529) was 67.9 µM (inactive). For the same compound, the GI50 (CAKI-1) was 68.2 µM (inactive) and the GI50 (ACHN) was 85.9 µM (inactive).

For `Cc1cc(N(CCC#N)CCC#N)ccc1/C=C1N=C(/C=C/c2ccccc2)OC(=O)N\1`, the GI50 (OVCAR-3) was 81.5 µM (inactive), the GI50 (A498) was > 100 µM (inactive) and the GI50 (DMS-114) was > 100 µM (inactive). The GI50 (KM-20L2) was > 100 µM (inactive), the GI50 (UACC-62) was > 100 µM (inactive) and the GI50 (UACC-257) was > 100 µM (inactive). For the same compound, the GI50 (LOX IMVI) was > 100 µM (inactive), the GI50 (SNB-19) was > 100 µM (inactive) and the GI50 (A549) was > 100 µM (inactive). For the same compound, the GI50 (CCRF-CEM) was > 100 µM (inactive), the GI50 (EKVX) was > 100 µM (inactive) and the GI50 (HL-60) was > 100 µM (inactive). The GI50 (UO-31) was > 100 µM (inactive), the GI50 (OVCAR-8) was > 100 µM (inactive) and the GI50 (SK-MEL-2) was > 100 µM (inactive). The GI50 (HCC 2998) was > 100 µM (inactive), the GI50 (HCT-15) was over 100 µM and the GI50 (SW-620) was > 100 µM (inactive). The GI50 (RXF 393) was 91.8 µM (inactive), the GI50 (M19-MEL) was > 100 µM (inactive) and the GI50 (HT-29) was > 100 µM (inactive). The GI50 (NCI-H522) was > 100 µM (inactive), the GI50 (IGROV-1) was > 100 µM (inactive) and the GI50 (U-251) was 61.5 µM (inactive). For the same compound, the GI50 (TK-10) was > 100 µM (inactive), the GI50 (SNB-75) was 31.3 µM (inactive) and the GI50 (SF-268) was > 100 µM (inactive). The GI50 (MOLT-4) was > 100 µM (inactive), the GI50 (HCT-116) was > 100 µM (inactive) and the GI50 (SK-MEL-5) was > 100 µM (inactive). For the same compound, the GI50 (XF498) was > 100 µM (inactive), the GI50 (SN12C) was > 100 µM (inactive) and the GI50 (RPMI-8226) was > 100 µM (inactive). For the same compound, the GI50 (OVCAR-5) was > 100 µM (inactive), the GI50 (M14) was > 100 µM (inactive) and the GI50 (K562) was > 100 µM (inactive). The GI50 (Malme-3M) was > 100 µM (inactive), the GI50 (DMS-273) was > 100 µM (inactive) and the GI50 (786-0) was 37.8 µM (inactive). The GI50 (SF-295) was 7.41 µM (inactive), the GI50 (NCI-H460) was > 100 µM (inactive) and the GI50 (HOP-62) was > 100 µM (inactive). The GI50 (SK-MEL-28) was > 100 µM (inactive), the GI50 (NCI-H23) was > 100 µM (inactive) and the GI50 (COLO 205) was > 100 µM (inactive). The GI50 (SF-539) was > 100 µM (inactive), the GI50 (KM12) was > 100 µM (inactive) and the GI50 (SNB-78) was 43.3 µM (inactive). The GI50 (DLD-1) was > 100 µM (inactive), the GI50 (SK-OV-3) was 92.3 µM (inactive) and the GI50 (LXFL 529) was > 100 µM (inactive). The GI50 (CAKI-1) was > 100 µM (inactive), the GI50 (ACHN) was > 100 µM (inactive) and the GI50 (NCI-H226) was 33 µM (inactive).
